Each compound was assayed on T47D (assay: Inhibition of breast cancer cell line T47D proliferation).
Type: functional, Homo sapiens
Set-up: concentration or dose not given beside the values
With `C[C@H](CO)C1CCC2/C(=C/C=C3CCCCC3)CCC[C@@]21C` (stereo partly drawn) the Inhibition was 13%.
`C[C@H](CO)C1CCC2/C(=C/C=C3CCC4(CC3)OCCO4)CCC[C@@]21C` (stereo partly drawn) showed an Inhibition of 40%.
For `CC(=O)C1CCC2/C(=C/C=C3CCCCC3)CCC[C@]12C` (stereo partly drawn), the Inhibition was 24%.
`C[C@H](C=O)C1CCC2/C(=C/C=C3CCC4(CC3)OCCO4)CCC[C@@]21C` (stereo partly drawn) was tested, and the Inhibition was 47%.
With `C=C1CC[C@H](O)C/C1=C/C=C1\CCC[C@]2(C)C(C(C)=O)CCC12` (stereo partly drawn) the Inhibition was 59%.
`C[C@H](C=O)C1CCC2/C(=C/C=C3CCCCC3)CCC[C@@]21C` (stereo partly drawn) was tested, and the Inhibition was 36%.
In the case of `CC(=O)C1CCC2/C(=C/C=C3CCC4(CC3)OCCO4)CCC[C@]12C` (stereo partly drawn), the Inhibition was 47%.
In the case of `CC(=O)C1CCC2/C(=C/C=C3CCC(=O)CC3)CCC[C@]12C` (stereo partly drawn), the Inhibition was 58%.

Source: ChEMBL document CHEMBL1128076, “Synthesis of novel 20-oxo-pregnacalciferol analogs with binding affinity to the progesterone receptor” (1995)
